Results as given in article PMC12673578 (Molecular Pharmaceutics, 2025).
“And” between values parts separate entries of the source, which are not always exact repeats. Equal values may be shown once. Read-outs that look alike come from different tables or passages of the source.

Key:
rCYP1A2 = rCYP1A2 (Homo sapiens, UniProt P05177)
Experimental: (§1) The samples were analyzed using an LC-MS/MS system consisting of microflow LC and Xevo-TQ-XS MS systems (Waters, Milford, MA). An Acquity UPLC HSS T3 C18 column ([…]) equipped with a guard column (Vanguard precolumn, […], 2.1 × 5 mm) was used for the analysis. […] The mass spectrometer was operated in multiple reaction monitoring (MRM) and positive ionization modes with a cone voltage of 30 V using an electrospray ionization source.
(§2) The relative expression factor (REF) for the rCYPs and rCES was calculated by using eq . 2 REF=CYPorCEScontentinpooledHLM(permgprotein)/CYPorCES content in the recombinant system (per mg protein)
(§3) 3 Rateofmetabolism=Vmax×S/Km+S
(§4) The CLint, total for each isoform was then multiplied with the respective REF values, and fraction metabolized (f m) is calculated as shown in eq . 4 fm,CYPi=ScaledCLint,total,2−oxo−clopidogrelCYPi/ScaledactivityCYPall×100

rCYP2B6 = rCYP2B6 (Homo sapiens, UniProt P20813)
Chain of rCYP2B6 (P20813 whole entry): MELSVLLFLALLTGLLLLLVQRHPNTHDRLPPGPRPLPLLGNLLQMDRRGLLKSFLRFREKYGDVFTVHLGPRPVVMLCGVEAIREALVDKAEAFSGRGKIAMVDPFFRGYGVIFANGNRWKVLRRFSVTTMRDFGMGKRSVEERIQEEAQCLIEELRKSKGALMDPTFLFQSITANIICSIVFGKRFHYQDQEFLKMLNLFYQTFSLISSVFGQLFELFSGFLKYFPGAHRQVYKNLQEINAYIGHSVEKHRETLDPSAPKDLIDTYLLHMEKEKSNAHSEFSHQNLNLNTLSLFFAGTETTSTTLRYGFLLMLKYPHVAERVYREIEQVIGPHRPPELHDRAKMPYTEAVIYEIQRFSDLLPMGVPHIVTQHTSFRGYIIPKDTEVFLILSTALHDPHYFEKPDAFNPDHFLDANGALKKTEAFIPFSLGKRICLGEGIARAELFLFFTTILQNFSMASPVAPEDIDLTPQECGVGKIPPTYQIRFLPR
Experimental: as §1, §2, §3, §4

rCYP2C19 = rCYP2C19 (Homo sapiens, UniProt P33261)
Experimental: as §1, §2, §3, §4

rCYP2C9 = rCYP2C9 (Homo sapiens, UniProt P11712)
Experimental: as §1, §2, §3, §4

rCES1 = rCES1 (Homo sapiens, UniProt P23141); conditions: rCES1 0.1 mg/mL, clopidogrel 0.9–240 μM, 30 min, 37 °C
Chain of rCES1 (P23141 18-567): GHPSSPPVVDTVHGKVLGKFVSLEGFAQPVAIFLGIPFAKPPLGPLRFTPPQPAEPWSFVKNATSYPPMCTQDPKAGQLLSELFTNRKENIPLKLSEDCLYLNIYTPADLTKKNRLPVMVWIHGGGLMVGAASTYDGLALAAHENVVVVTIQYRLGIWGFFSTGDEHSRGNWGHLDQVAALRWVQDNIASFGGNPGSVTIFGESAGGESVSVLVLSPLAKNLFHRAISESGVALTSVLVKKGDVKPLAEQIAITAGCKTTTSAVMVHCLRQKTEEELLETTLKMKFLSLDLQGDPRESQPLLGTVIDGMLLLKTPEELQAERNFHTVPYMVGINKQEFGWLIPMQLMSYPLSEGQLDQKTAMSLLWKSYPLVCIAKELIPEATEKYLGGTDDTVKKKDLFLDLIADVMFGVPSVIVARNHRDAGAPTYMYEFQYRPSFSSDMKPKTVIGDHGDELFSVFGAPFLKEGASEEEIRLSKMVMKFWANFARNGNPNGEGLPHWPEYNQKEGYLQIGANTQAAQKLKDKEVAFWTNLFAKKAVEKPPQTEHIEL
Experimental: (§5) The samples were analyzed using an LC-MS/MS system consisting of microflow LC and Xevo-TQ-XS MS systems (Waters, Milford, MA). An Acquity UPLC HSS T3 C18 column (1.8 mm, 1 mm × 100 × 100 mm) equipped with a guard column (Vanguard precolumn, 1.8 mm, 2.1 × 5 mm) was used for the analysis. […] The mass spectrometer was operated in multiple reaction monitoring (MRM) and positive ionization modes with a cone voltage of 30 V using an electrospray ionization source.

[1] = pooled fractions 0.5 mg/mL, clopidogrel 150 μM
Experimental: The protein concentration was maintained at 0.5 mg/mL, and all incubations were conducted in triplicates in a water bath shaker at 37 °C with incubation volumes of 100 μL each. […] Samples were centrifuged at 10,000g for 5 min (4 °C), and the supernatants were collected and diluted 10-fold using a 75:25 (0.1% formic acid in ACN/0.1% formic acid in water) solution before being transferred to an LC-MS vial for analysis.
as §5

[2] = following oral administration; literature value; cited from earlier work
CES1 G143E variant = conditions: second cited study; literature value; cited from earlier work
CYP3A = conditions: ketoconazole coadministered, literature value, cited from earlier work
not read = substrate: COC(=O)[C@H](c1ccccc1Cl)N1CCc2sccc2C1; test: not read; conditions: 5 min, 37 °C
[3] = other: rCYP1A2, clopidogrel 0.3–160 μM
[4] = other: rCYP2C9, clopidogrel 0.3–160 μM
[5] = other: rCYP2C19, clopidogrel 0.3–160 μM

Molecule: COC(=O)[C@H](c1ccccc1Cl)N1CCc2sccc2C1 [clopidogrel]
- f m (rCYP1A2; fraction of 2-oxo-clopidogrel formation by CYP1A2): 0.6%
- K m of 2-oxo-clopidogrel formation (rCYP1A2; rCYP1A2): 17.0 µM
- CLint (rCYP2B6): 15.8 μL/mg protein/min
- CLint *REF (rCYP2B6): 0.09 μL/mg protein/min
- f m (rCYP2B6): 1.5%
- CLint (V max/K m) (rCYP2B6; recombinant enzyme): 1.8 μL/pmol P450/min
- f m (rCYP2C19; fraction of 2-oxo-clopidogrel formation by CYP2C19): 0.1%
- K m of 2-oxo-clopidogrel formation (rCYP2C19; rCYP2C19): 13.8 ± 5.5 µM and 13.8 µM
- f m (rCYP2C9; fraction of 2-oxo-clopidogrel formation by CYP2C9): 40.3%
- K m of 2-oxo-clopidogrel formation (rCYP2C9; rCYP2C9): 20.6 µM
- K m for CCA formation (rCES1): 14.92 ± 4.8 µM
- CCA formation rate normalized with CES1 content (pmol/min/pmol CES1) in HLS9 versus HLM [1]: two-fold higher
- Rate of formation of 2-oxo-clopidogrel in HLM (pmol/min/mg protein) versus HLS9 [1]: two-fold higher
- Rate of formation of CCA in HLM (pmol/min/mg protein) versus HLS9 [1]: two-fold higher
- Fraction of the drug absorbed [2]: approximately 50%
- Increase in platelet aggregation inhibition in G143E carriers compared to noncarriers (CES1 G143E variant): 19%

Molecule: CC(=O)N1CCN(c2ccc(OCC3COC(Cn4ccnc4)(c4ccc(Cl)cc4Cl)O3)cc2)CC1 (centres unmarked) [Ketoconazole, ketoconazole]
- Reduction of AUC0–24 of clopidogrel active metabolite (CYP3A; after 75 mg clopidogrel maintenance dose (MD)): 29%
- Reduction of AUC0–24 of clopidogrel active metabolite (CYP3A; after 300 mg clopidogrel loading dose (LD)): 22%
- Decrease of C max of the active metabolite (CYP3A; following LD): 48%
- Decrease of C max of the active metabolite (CYP3A; following MD): 61%

B1: rCYP1A2 (Homo sapiens) (protein)
chain: MALSQSVPFSATELLLASAIFCLVFWVLKGLRPRVPKGLKSPPEPWGWPLLGHVLTLGKNPHLALSRMSQRYGDVLQIRIGSTPVLVLSRLDTIRQALVRQGDDFKGRPDLYTSTLITDGQSLTFSTDSGPVWAARRRLAQNALNTFSIASDPASSSSCYLEEHVSKEAKALISRLQELMAGPGHFDPYNQVVVSVANVIGAMCFGQHFPESSDEMLSLVKNTHEFVETASSGNPLDFFPILRYLPNPALQRFKAFNQRFLWFLQKTVQEHYQDFDKNSVRDITGALFKHSKKGPRASGNLIPQEKIVNLVNDIFGAGFDTVTTAISWSLMYLVTKPEIQRKIQKELDTVIGRERRPRLSDRPQLPYLEAFILETFRHSSFLPFTIPHSTTRDTTLNGFYIPKKCCVFVNQWQVNHDPELWEDPSEFRPERFLTADGTAINKPLSEKMMLFGMGKRRCIGEVLAKWEIFLFLAILLQQLEFSVPPGVKVDLTPIYGLTMKHARCEHVQARLRFSIN
- kcat (not read; [3]): 0.258 s⁻¹
- kcat/Km (not read; [3]): 0.9 μL/pmol P450/min

B2: rCYP2C9 (Homo sapiens) (protein)
chain: MDSLVVLVLCLSCLLLLSLWRQSSGRGKLPPGPTPLPVIGNILQIGIKDISKSLTNLSKVYGPVFTLYFGLKPIVVLHGYEAVKEALIDLGEEFSGRGIFPLAERANRGFGIVFSNGKKWKEIRRFSLMTLRNFGMGKRSIEDRVQEEARCLVEELRKTKASPCDPTFILGCAPCNVICSIIFHKRFDYKDQQFLNLMEKLNENIKILSSPWIQICNNFSPIIDYFPGTHNKLLKNVAFMKSYILEKVKEHQESMDMNNPQDFIDCFLMKMEKEKHNQPSEFTIESLENTAVDLFGAGTETTSTTLRYALLLLLKHPEVTAKVQEEIERVIGRNRSPCMQDRSHMPYTDAVVHEVQRYIDLLPTSLPHAVTCDIKFRNYLIPKGTTILISLTSVLHDNKEFPNPEMFDPHHFLDEGGNFKKSKYFMPFSAGKRICVGEALAGMELFLFLTSILQNFNLKSLVDPKNLDTTPVVNGFASVPPFYQLCFIPV
- kcat (not read; [4]): 0.387 s⁻¹
- kcat/Km (not read; [4]): 1.1 μL/pmol P450/min

B3: rCYP2C19 (Homo sapiens) (protein)
chain: MDPFVVLVLCLSCLLLLSIWRQSSGRGKLPPGPTPLPVIGNILQIDIKDVSKSLTNLSKIYGPVFTLYFGLERMVVLHGYEVVKEALIDLGEEFSGRGHFPLAERANRGFGIVFSNGKRWKEIRRFSLMTLRNFGMGKRSIEDRVQEEARCLVEELRKTKASPCDPTFILGCAPCNVICSIIFQKRFDYKDQQFLNLMEKLNENIRIVSTPWIQICNNFPTIIDYFPGTHNKLLKNLAFMESDILEKVKEHQESMDINNPRDFIDCFLIKMEKEKQNQQSEFTIENLVITAADLLGAGTETTSTTLRYALLLLLKHPEVTAKVQEEIERVIGRNRSPCMQDRGHMPYTDAVVHEVQRYIDLIPTSLPHAVTCDVKFRNYLIPKGTTILTSLTSVLHDNKEFPNPEMFDPRHFLDEGGNFKKSNYFMPFSAGKRICVGEGLARMELFLFLTFILQNFNLKSLIDPKDLDTTPVVNGFASVPPFYQLCFIPV
- kcat (not read; [5]): 0.36 s⁻¹
- kcat/Km (not read; [5]): 1.6 μL/pmol P450/min
